# Measured values from ChEMBL document CHEMBL1151745, “Identification of potent, selective, and metabolically stable peptide antagonists to the calcitonin gene-related peptide (CGRP) receptor” (J Med Chem, 2008).
# Calls of active or inactive are those of the source. No cut-off for these calls is given here.
# Target: Calcitonin gene-related peptide type 1 receptor (Homo sapiens) (UniProt Q16602)
# Assay: Agonist activity at human CGRP1 receptor in human SK-N-MC cells
# Chain of Calcitonin gene-related peptide type 1 receptor (Homo sapiens) (Q16602 whole entry, looked up): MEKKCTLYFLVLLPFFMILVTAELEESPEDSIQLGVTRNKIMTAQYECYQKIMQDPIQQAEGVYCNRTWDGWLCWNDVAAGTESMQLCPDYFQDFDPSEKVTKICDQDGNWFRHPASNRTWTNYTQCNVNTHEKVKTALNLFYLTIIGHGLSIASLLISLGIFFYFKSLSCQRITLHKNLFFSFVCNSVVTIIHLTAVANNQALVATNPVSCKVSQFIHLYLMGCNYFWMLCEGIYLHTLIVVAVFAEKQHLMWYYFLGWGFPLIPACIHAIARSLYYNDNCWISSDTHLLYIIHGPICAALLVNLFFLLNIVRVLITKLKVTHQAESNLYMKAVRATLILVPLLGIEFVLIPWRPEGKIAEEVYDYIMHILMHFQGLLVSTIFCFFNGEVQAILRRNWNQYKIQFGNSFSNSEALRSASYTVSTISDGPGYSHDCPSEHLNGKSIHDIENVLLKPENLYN
row,Activity,SMILES
1,inactive,CC(=O)N[C@@H](Cc1c[nH]c2ccccc12)C(=O)N[C@H](C(=O)N[C@H]1CCC(=O)NCCCC[C@@H](C(=O)NCC(=O)N[C@@H](CC(C)C)C(=O)N[C@@H](CC(C)C)C(=O)N[C@@H](CO)C(=O)N[C@@H](CCCNC(=N)N)C(=O)N[C@@H](CO)C(=O)NCC(=O)NCC(=O)N[C@H](C(=O)N[C@H](C(=O)N[C@@H](CCCNC(=N)N)C(=O)N[C@@H](CCCCN)C(=O)N[C@@H](CC(N)=O)C(=O)N[C@@H](Cc2ccccc2)C(=O)N[C@H](C(=O)N2CCC[C@H]2C(=O)N[C@H](C(=O)N[C@@H](CC(=O)O)C(=O)N[C@H](C(=O)NCC(=O)N2CCC[C@H]2C(=O)N[C@@H](Cc2ccccc2)C(=O)N[C@@H](C)C(=O)N[C@@H](Cc2ccccc2)C(N)=O)C(C)C)[C@@H](C)O)C(C)C)C(C)C)C(C)C)NC(=O)[C@H](CC(C)C)NC(=O)[C@H](CCCNC(=N)N)NC(=O)[C@H](Cc2cnc[nH]2)NC1=O)C(C)C
2,inactive,CC(=O)N[C@@H](Cc1c[nH]c2ccccc12)C(=O)N[C@H](C(=O)N[C@H](C(=O)N[C@@H](Cc1cnc[nH]1)C(=O)N[C@@H](CCCNC(N)=O)C(=O)N[C@@H](CC(C)C)C(=O)N[C@@H](C)C(=O)NCC(=O)N[C@@H](CC(C)C)C(=O)N[C@@H](CC(C)C)C(=O)N[C@@H](CO)C(=O)N[C@@H](CCCNC(N)=O)C(=O)N[C@@H](CO)C(=O)NCC(=O)NCC(=O)N[C@H](C(=O)N[C@H](C(=O)N[C@@H](CCCCNC(=N)N)C(=O)N[C@@H](CCCCN)C(=O)N[C@@H](CC(N)=O)C(=O)N[C@@H](Cc1ccccc1)C(=O)N[C@H](C(=O)N1CCC[C@H]1C(=O)N[C@H](C(=O)N[C@@H](CC(=O)O)C(=O)N[C@H](C(=O)NCC(=O)NC(C)(C)C(=O)N[C@@H](Cc1ccccc1)C(=O)N[C@@H](C)C(=O)N[C@@H](Cc1ccccc1)C(N)=O)C(C)C)[C@@H](C)O)C(C)C)C(C)C)C(C)C)[C@@H](C)O)C(C)C
3,inactive,CC(=O)N[C@@H](Cc1c[nH]c2ccccc12)C(=O)N[C@H](C(=O)N[C@H](C(=O)N[C@@H](Cc1cnc[nH]1)C(=O)N[C@@H](CCCNC(N)=O)C(=O)N[C@@H](CC(C)C)C(=O)N[C@@H](C)C(=O)NCC(=O)N[C@@H](CC(C)C)C(=O)N[C@@H](CC(C)C)C(=O)N[C@@H](CO)C(=O)N[C@@H](CCCNC(N)=O)C(=O)N[C@@H](CO)C(=O)NCC(=O)NCC(=O)N[C@H](C(=O)N[C@H](C(=O)N[C@@H](CCCCNC(=N)N)C(=O)N[C@@H](CCCCN)C(=O)N[C@@H](CC(N)=O)C(=O)N[C@@H](Cc1ccccc1)C(=O)N[C@H](C(=O)N1CCC[C@H]1C(=O)N[C@H](C(=O)N[C@@H](CC(=O)O)C(=O)N[C@H](C(=O)NCC(=O)NC1(C(=O)N[C@@H](Cc2ccccc2)C(=O)N[C@@H](C)C(=O)N[C@@H](Cc2ccccc2)C(N)=O)CCNCC1)C(C)C)[C@@H](C)O)C(C)C)C(C)C)C(C)C)[C@@H](C)O)C(C)C
4,inactive,CC(=O)N[C@@H](Cc1c[nH]c2ccccc12)C(=O)N[C@H](C(=O)N[C@H](C(=O)N[C@@H](Cc1cnc[nH]1)C(=O)N[C@@H](CCCNC(N)=O)C(=O)N[C@@H](CC(C)C)C(=O)N[C@@H](C)C(=O)NCC(=O)N[C@@H](CC(C)C)C(=O)N[C@@H](CC(C)C)C(=O)N[C@@H](CO)C(=O)N[C@@H](CCCNC(N)=O)C(=O)N[C@@H](CO)C(=O)NCC(=O)NCC(=O)N[C@H](C(=O)N[C@H](C(=O)N[C@@H](CCCCNC(=N)N)C(=O)N[C@@H](CCCCN)C(=O)N[C@@H](CC(N)=O)C(=O)N[C@@H](Cc1ccccc1)C(=O)N[C@H](C(=O)N1CCC[C@H]1C(=O)N[C@H](C(=O)N[C@@H](CC(=O)O)C(=O)N[C@H](C(=O)NCC(=O)N1CCC[C@H]1CC(=O)N[C@@H](Cc1ccccc1)C(=O)N[C@@H](C)C(=O)N[C@@H](Cc1ccccc1)C(N)=O)C(C)C)[C@@H](C)O)C(C)C)C(C)C)C(C)C)[C@@H](C)O)C(C)C
